Active and inactive are the calls of the source. The rule behind the calls is not given here.

The test system of this data set is CCRIS mutagenicity, Ames/micronucleus/aberration tests. Put plainly: CCRIS mutagenicity studies.
Where [1] appears, read: Test System: AMES SALMONELLA TYPHIMURIUM, Strain/Indicator: TA98, Metabolic Activation: NONE, Method: PREINCUBATION
Setting [2] is: Test System: AMES SALMONELLA TYPHIMURIUM, Strain/Indicator: TA100, Metabolic Activation: NONE, Method: PREINCUBATION
Where [3] appears, read: Test System: AMES SALMONELLA TYPHIMURIUM, Strain/Indicator: TA1535, Metabolic Activation: NONE, Method: PREINCUBATION

For the compound `O=c1ccc2ccccc2o1`, the mutagenic call was “inactive; negative” (End Point: IN VITRO CHROMOSOMAL ABERRATIONS, Test System: CHINESE HAMSTER OVARY CELLS, Metabolic Activation: NONE); “active; positive” (End Point: IN VITRO CHROMOSOMAL ABERRATIONS, Test System: CHINESE HAMSTER OVARY CELLS, Metabolic Activation: RAT, LIVER, S-9, AROCLOR 1254); “inactive; negative” (End Point: IN VIVO MICRONUCLEUS, Test System: BONE MARROW CELLS, Species: MOUSE, Strain/Sex: SWISS/MALE, FEMALE, Route: GAVAGE); “inactive; negative” (Test System: AMES SALMONELLA TYPHIMURIUM, Strain/Indicator: TA98, Metabolic Activation: HAMSTER, LIVER, S-9, AROCLOR 1254 (10%), Method: PREINCUBATION); “inactive; negative” (Test System: AMES SALMONELLA TYPHIMURIUM, Strain/Indicator: TA98, Metabolic Activation: NONE, Method: FLUCTUATION (MICROTITER)); “inactive; negative” under setting [1]. The mutagenic call by setting is: (Test System: AMES SALMONELLA TYPHIMURIUM, Strain/Indicator: TA98, Metabolic Activation: RAT LIVER S-9, AROCLOR 1254, Method: FLUCTUATION (MICROTITER)) “inactive; negative”; (Test System: AMES SALMONELLA TYPHIMURIUM, Strain/Indicator: TA98, Metabolic Activation: RAT, LIVER, S-9, AROCLOR 1254 (10%), Method: PREINCUBATION) “inactive; negative”; (Test System: AMES SALMONELLA TYPHIMURIUM, Strain/Indicator: TA100, Metabolic Activation: HAMSTER, LIVER, S-9, AROCLOR 1254 (10%), Method: PREINCUBATION) “active; positive”; under setting [2], “inactive; negative”; (Test System: AMES SALMONELLA TYPHIMURIUM, Strain/Indicator: TA1535, Metabolic Activation: HAMSTER, LIVER, S-9, AROCLOR 1254 (10%), Method: PREINCUBATION) “inactive; negative”; under setting [3], “inactive; negative”. In addition, the mutagenic call reads like this: (Test System: AMES SALMONELLA TYPHIMURIUM, Strain/Indicator: TA1535, Metabolic Activation: RAT, LIVER, S-9, AROCLOR 1254 (10%), Method: PREINCUBATION) “inactive; negative”; (Test System: AMES SALMONELLA TYPHIMURIUM, Strain/Indicator: TA1537, Metabolic Activation: HAMSTER, LIVER, S-9, AROCLOR 1254 (10%), Method: PREINCUBATION) “inactive; negative”; (Test System: AMES SALMONELLA TYPHIMURIUM, Strain/Indicator: TA1537, Metabolic Activation: NONE, Method: FLUCTUATION (MICROTITER)) “inactive; negative”; (Test System: AMES SALMONELLA TYPHIMURIUM, Strain/Indicator: TA1537, Metabolic Activation: NONE, Method: PREINCUBATION) “inactive; negative”; (Test System: AMES SALMONELLA TYPHIMURIUM, Strain/Indicator: TA1537, Metabolic Activation: RAT LIVER S-9, AROCLOR 1254, Method: FLUCTUATION (MICROTITER)) “inactive; negative”; (Test System: AMES SALMONELLA TYPHIMURIUM, Strain/Indicator: TA1537, Metabolic Activation: RAT, LIVER, S-9, AROCLOR 1254 (10%), Method: PREINCUBATION) “inactive; negative”. For the same compound, the mutagenic call is, setting by setting: (Test System: AMES SALMONELLA TYPHIMURIUM, Strain/Indicator: TA7001, Metabolic Activation: NONE, Method: FLUCTUATION (MICROTITER)) “inactive; negative”; (Test System: AMES SALMONELLA TYPHIMURIUM, Strain/Indicator: TA7001, Metabolic Activation: RAT LIVER S-9, AROCLOR 1254, Method: FLUCTUATION (MICROTITER)) “inactive; negative”; (Test System: AMES SALMONELLA TYPHIMURIUM, Strain/Indicator: TA7002, Metabolic Activation: NONE, Method: FLUCTUATION (MICROTITER)) “inactive; negative”; (Test System: AMES SALMONELLA TYPHIMURIUM, Strain/Indicator: TA7002, Metabolic Activation: RAT LIVER S-9, AROCLOR 1254, Method: FLUCTUATION (MICROTITER)) “active; positive”; (Test System: AMES SALMONELLA TYPHIMURIUM, Strain/Indicator: TA7003, Metabolic Activation: NONE, Method: FLUCTUATION (MICROTITER)) “inactive; negative”; (Test System: AMES SALMONELLA TYPHIMURIUM, Strain/Indicator: TA7003, Metabolic Activation: RAT LIVER S-9, AROCLOR 1254, Method: FLUCTUATION (MICROTITER)) “inactive; negative”. Moreover, the mutagenic call is, setting by setting: (Test System: AMES SALMONELLA TYPHIMURIUM, Strain/Indicator: TA7004, Metabolic Activation: NONE, Method: FLUCTUATION (MICROTITER)) “inactive; negative”; (Test System: AMES SALMONELLA TYPHIMURIUM, Strain/Indicator: TA7004, Metabolic Activation: RAT LIVER S-9, AROCLOR 1254, Method: FLUCTUATION (MICROTITER)) “inactive; negative”; (Test System: AMES SALMONELLA TYPHIMURIUM, Strain/Indicator: TA7005, Metabolic Activation: NONE, Method: FLUCTUATION (MICROTITER)) “inactive; negative”; (Test System: AMES SALMONELLA TYPHIMURIUM, Strain/Indicator: TA7005, Metabolic Activation: RAT LIVER S-9, AROCLOR 1254, Method: FLUCTUATION (MICROTITER)) “inactive; negative”; (Test System: AMES SALMONELLA TYPHIMURIUM, Strain/Indicator: TA7006, Metabolic Activation: NONE, Method: FLUCTUATION (MICROTITER)) “inactive; negative”; (Test System: AMES SALMONELLA TYPHIMURIUM, Strain/Indicator: TA7006, Metabolic Activation: RAT LIVER S-9, AROCLOR 1254, Method: FLUCTUATION (MICROTITER)) “inactive; negative”. Moreover, the mutagenic call (Test System: UDS HUMAN HEPATOCYTES, Strain/Indicator: THY INCORP, Metabolic Activation: NONE, Method: AUTORADIOGRAPHY) was “inactive; negative”.

In the case of `NCCS(=O)(=O)O`, the mutagenic call is “inactive; negative” (Test System: AMES SALMONELLA TYPHIMURIUM, Strain/Indicator: TA97, Metabolic Activation: HAMSTER, LIVER, S-9, AROCLOR 1254 (10 OR 30%), Method: PREINCUBATION); “inactive; negative” (Test System: AMES SALMONELLA TYPHIMURIUM, Strain/Indicator: TA97, Metabolic Activation: NONE, Method: PREINCUBATION); “inactive; negative” (Test System: AMES SALMONELLA TYPHIMURIUM, Strain/Indicator: TA97, Metabolic Activation: RAT, LIVER, S-9, AROCLOR 1254 (10 OR 30%), Method: PREINCUBATION); “inactive; negative” (Test System: AMES SALMONELLA TYPHIMURIUM, Strain/Indicator: TA98, Metabolic Activation: HAMSTER, LIVER, S-9, AROCLOR 1254 (10 OR 30%), Method: PREINCUBATION); “inactive; negative” under setting [1]; “inactive; negative” (Test System: AMES SALMONELLA TYPHIMURIUM, Strain/Indicator: TA98, Metabolic Activation: RAT, LIVER, S-9, AROCLOR 1254 (10 OR 30%), Method: PREINCUBATION). The mutagenic call runs as follows: (Test System: AMES SALMONELLA TYPHIMURIUM, Strain/Indicator: TA100, Metabolic Activation: HAMSTER, LIVER, S-9, AROCLOR 1254 (10 OR 30%), Method: PREINCUBATION) “inactive; negative”; under setting [2], “inactive; negative”; (Test System: AMES SALMONELLA TYPHIMURIUM, Strain/Indicator: TA100, Metabolic Activation: RAT, LIVER, S-9, AROCLOR 1254 (10 OR 30%), Method: PREINCUBATION) “inactive; negative”; (Test System: AMES SALMONELLA TYPHIMURIUM, Strain/Indicator: TA1535, Metabolic Activation: HAMSTER, LIVER, S-9, AROCLOR 1254 (10 OR 30%), Method: PREINCUBATION) “inactive; negative”; under setting [3], “inactive; negative”; (Test System: AMES SALMONELLA TYPHIMURIUM, Strain/Indicator: TA1535, Metabolic Activation: RAT, LIVER, S-9, AROCLOR 1254 (10 OR 30%), Method: PREINCUBATION) “inactive; negative”.

Take `O=[N+]([O-])c1cc2c(ccc3ccccc32)c2c1C=C[C@H](O)[C@H]2O`: the mutagenic call by setting is: under setting [1], “active; positive”; (Test System: AMES SALMONELLA TYPHIMURIUM, Strain/Indicator: TA98, Metabolic Activation: RAT, LIVER, S-9, AROCLOR 1254, Method: PREINCUBATION) “inactive; negative”; under setting [2], “active; positive”; (Test System: AMES SALMONELLA TYPHIMURIUM, Strain/Indicator: TA100, Metabolic Activation: RAT, LIVER, S-9, AROCLOR 1254, Method: PREINCUBATION) “active; positive”.

With `Cc1nc2ccc(N)c(C)c2nc1C`, the mutagenic call by setting is: under setting [1], “inactive; negative”; (Test System: AMES SALMONELLA TYPHIMURIUM, Strain/Indicator: TA98, Metabolic Activation: RAT, LIVER, S-9, PCB, Method: PREINCUBATION) “active; positive”; under setting [2], “inactive; negative”; (Test System: AMES SALMONELLA TYPHIMURIUM, Strain/Indicator: TA100, Metabolic Activation: RAT, LIVER, S-9, PCB, Method: PREINCUBATION) “active; positive”.

Values taken from PubChem BioAssay AID1259407 (Chemical Carcinogenesis Research Information System (CCRIS), 2018).
